Results taken from EP4702986A1, “POLYPEPTIDE AND USE THEREOF” (Biocells (Beijing) Biotech Co., Ltd., priority 2023, dated 2024).
Entries after “also recorded” stand apart in the source; their conditions may differ. Where two headings read alike, the source gives them in different places. Numbered stars: 1 amine (or outer) side, 2 acyl side, 3 side chain; on linkers, the order of the positions; unused ones are H or OH. Side chains are listed from the residue outwards. Peptide text beside a SMILES is read from it. * marks the point of attachment. C18 diacid = O=C(O)CCCCCCCCCCCCCCCCC(=O)*; γGlu = O=C(O)[C@H](CCC(=O)[*:2])N[*:1]; Ethylenediamine = C(CN[*:2])N[*:1]; Stearoyl = CCCCCCCCCCCCCCCCCC(=O)*; Fumaroyl = O=C(O)/C=C/C(=O)*; Suc = O=C(CCC(=O)[*:2])[*:1]; Lauroyl = CCCCCCCCCCCC(=O)*; AEEA = NCCOCCOCC(=O)O

Tests used:
in vivo = conditions: male, SD, rat, in vivo, iv
Description: (§1) In an experiment about acute toxicity of intravenous administration, male SD rats weighing 200-230 g were dosed in a range between 480 µg/Kg and 30 µg/Kg via tail vein injection in a descending order of dosage. […] Toxic response and mortality of the rats were preliminarily observed, and time of death and doses without mortality of the rats were recorded. The level of acute toxicity of the polypeptides was preliminarily determined based on the doses without mortality.

male SD rats [1] = test: in vivo; conditions: one animal per row, observed 24 hours
Description: as §1

male SD rats [2] = conditions: one animal per row, observed 48 hours
Description: In an experiment about acute toxicity of subcutaneous administration, male SD rats weighing 200-230 g were dosed in a range between 60 µg/Kg and 960 µg/Kg. Observation was made for 48 hours after subcutaneous administration. Toxic response and mortality of the rats were preliminarily observed, and time of death and doses without mortality were recorded. The level of acute toxicity of the polypeptides was preliminarily determined based on the doses without mortality.

human ETA receptor = target: T1, human ETA receptor (Homo sapiens, UniProt P25101); test: Selectivity of polypeptides on human ETA receptor (IP-One Gq kit, % of positive control ET1); format: cell-based; conditions: read-out: hETAR agonist activity, percentage of activity relative to ET1
T1 construct: expressed in transfected cells; host or cells: 293T-17 cells, transient transfection
T1 sequence (P25101 21-427): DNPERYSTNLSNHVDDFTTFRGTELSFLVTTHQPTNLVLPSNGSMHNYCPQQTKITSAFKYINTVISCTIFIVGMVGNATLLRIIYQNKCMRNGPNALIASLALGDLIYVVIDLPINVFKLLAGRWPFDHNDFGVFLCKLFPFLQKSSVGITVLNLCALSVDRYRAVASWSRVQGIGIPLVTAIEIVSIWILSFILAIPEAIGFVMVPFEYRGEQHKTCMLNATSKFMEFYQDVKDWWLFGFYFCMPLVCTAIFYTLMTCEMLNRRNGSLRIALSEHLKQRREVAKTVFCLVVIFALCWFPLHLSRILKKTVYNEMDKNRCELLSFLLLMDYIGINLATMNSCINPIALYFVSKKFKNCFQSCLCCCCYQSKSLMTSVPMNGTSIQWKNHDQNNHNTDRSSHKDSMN
Description: 293T-17 cells were seeded at a density of 650,000 cells per well in a 6-well plate and cultured overnight in an incubator at 37°C and 5% CO2. Afterward, the cells were transfected with an expression vector, PCDNA3.1-hETA which contained a human ETA receptor gene, at a plasmid concentration of 2.5 µg per well. The cells were further cultured for 48 hours, and green fluorescence expression was observed under a fluorescence microscope. The cells were then digested with trypsin and counted. The activity of compounds on the human ETA receptor was determined with the IP-One Gq kit from Cisbio Bioassays. The cells were suspended in Stim Buffer provided in the kit and the cell suspension was added to a 96-well detection plate at 7 µL cell suspension (containing 30,000 cells) per well. The polypeptides to be screened for activity (prepared according to the Preparation Example of the invention) and polypeptide human endothelin ET1 as positive control were dissolved in Stim B to be at a concentration of 2×, and 7 µL was added to the test cells, while 7 µL of PBS solution was added to the cells in the negative control wells. Human endothelin ET1 (ET1: […] (C1-C15,C3-C11)) set forth in SEQ ID No. 85 was used as the positive control polypeptide. The plate was sealed and incubated at 37°C for 1 h in a cell culture incubator. Detection wells, positive control wells, and PBS control wells were each added with 3 µL of IP1 d2 working solution and 3 µL of IP1 Tb cryptotate Antibody working solution. The plate was sealed and incubated in the dark at room temperature (25°C±5°C) for 1 h. The plate seal was removed, and the […] at 665 nm and 620 nm was measured with an ID5 microplate reader. The ratio of the acceptor emission signal to the donor emission signal, i.e., the value of (signal at 665 nm/signal at 620 nm)×10^4, was calculated for each well. With F3 representing the average value of values of signal at 665 nm/signal at 620 nm determined for the test sample at a specific concentration, F5 representing the average value of values of signal at 665 nm/signal at 620 nm determined for the positive control human endothelin ET1 at the same concentration, and T3 representing the average value of values of signal at 665 nm/signal at 620 nm determined for the PBS negative control, the percentage of activity of the test polypeptide sample relative to the positive control sample ET1 = (F3-T3)×100/(F5-T3) (see Table 6). hETA sequence (NCBI accession number L06622.1).

[3] = Determination of half-lives of polypeptides (plasma, LC-MS); conditions: for half-life: C57 BL/6, mouse, plasma, iv; for AUClast 0-30 min: C57 BL/6 mice, dosage per compound 0.48, 0.96 or 1 mpk; for AUClast 0-30 min / T1/2: i.v.; for T1/2: Table 1, mice
[4] = intravenous (tail vein) 240 µg/Kg

| SMILES | Observations of Animal Status (male SD rats [1]; [4]) | activation at 10 µM (human ETA receptor) | activation at 100 µM (human ETA receptor) | half-life [3] | AUClast 0-30 min [3] | T1/2 [3] | further results |
| --- | --- | --- | --- | --- | --- | --- | --- |
| CC[C@H](C)[C@H](NC(=O)[C@H](CC(=O)O)NC(=O)[C@H](CC(C)C)NC(=O)[C@H](Cc1c[nH]cn1)NC(=O)[C@H](C)NC(=O)[C@H](Cc1ccccc1)NC(=O)[C@H](Cc1ccc(O)cc1)NC(=O)[C@@H](NC(=O)[C@H](C)NC(=O)[C@H](CCC(=O)O)NC(=O)[C@H](CCCCNC(=O)COCCOCCNC(=O)COCCOCCNC(=O)CC[C@H](NC(=O)CCCCCCCCCCCCCCCCC(=O)O)C(=O)O)NC(=O)[C@H](CC(=O)O)NC(=O)/C=C/C(=O)O)C(C)C)C(=O)N[C@H](C(=O)N[C@@H](Cc1c[nH]c2ccccc12)C(=O)O)[C@@H](C)CC [BX-254] (Fumaroyl-DK([AEEA-AEEA-γGlu-C18 diacid])EAVYFAHLDIIW-OH) | No obvious abnormalities; also recorded: Developed rapid breathing, the limbs turned purple, developed breathing depression, and limbs moved like swimming at 15 minutes after administration; then died at 20 minutes after administration; also recorded: Developed rapid breathing, the limbs turned purple, and had weak limbs at 14 minutes after administration; died of breathing depression at 21 minutes after administration |  |  |  |  |  | MTD at 24 h (in vivo): 0.12 mg/kg; Observations of Animal Status (male SD rats [1]; intravenous (tail vein) 360 µg/Kg): The body turned purple at 16 minutes after administration; died at 26 minutes after administration; Observations of Animal Status (male SD rats [1]; intravenous (tail vein) 480 µg/Kg): The body turned purple at 22 minutes after administration; died at 25 minutes after administration |
| CCCCCCCCCCCC(=O)N[C@@H](CCC(=O)O)C(=O)NCCOCCOCC(=O)NCCCC[C@H](NC(=O)[C@H](Cc1c[nH]cn1)NC(=O)[C@H](C)NC(=O)[C@H](Cc1ccccc1)NC(=O)[C@H](Cc1ccc(O)cc1)NC(=O)[C@@H](NC(=O)[C@H](C)NC(=O)[C@H](CCC(=O)O)NC(=O)[C@H](CCC(=O)O)NC(=O)[C@H](CC(=O)O)NC(=O)/C=C/C(=O)O)C(C)C)C(=O)N[C@@H](CC(=O)O)C(=O)N[C@H](C(=O)N[C@H](C(=O)N[C@@H](Cc1c[nH]c2ccccc12)C(=O)O)[C@@H](C)CC)C(C)C [BX238-Na] (Fumaroyl-DEEAVYFAHK([AEEA-Glu-Lauroyl])DVIW-OH) |  |  |  |  |  |  | Observations of Animal Status (male SD rats [2]; subcutaneous 240 µg/Kg): No obvious abnormal reaction observed within 48 hours; Observations of Animal Status (male SD rats [2]; subcutaneous 360 µg/Kg): No obvious abnormal reaction observed within 48 hours; Observations of Animal Status (male SD rats [2]; subcutaneous 480 µg/Kg): Developed rapid breathing at 50 minutes after administration, showed no willingness to move, recovered 2 hours after administration; also recorded: Developed rapid breathing at 21 minutes after administration, died at 26 minutes after administration; also recorded: Developed rapid breathing at 10 minutes after administration, died at 47 minutes after administration; also recorded: Developed rapid breathing at 45 minutes after administration, showed no willingness to move, recovered 2 hours after administration; also recorded: Developed rapid breathing at 20 minutes after administration, died at 55 minutes after administration |
| CC[C@H](C)[C@H](NC(=O)[C@H](CC(=O)O)NC(=O)[C@H](CC(C)C)NC(=O)[C@H](Cc1c[nH]cn1)NC(=O)[C@H](C)NC(=O)[C@H](Cc1ccccc1)NC(=O)[C@H](Cc1ccc(O)cc1)NC(=O)[C@@H](NC(=O)[C@H](C)NC(=O)[C@H](CCC(=O)O)NC(=O)[C@H](CCC(=O)O)NC(=O)[C@H](CC(=O)O)NC(=O)CCC(=O)NCCNC(=O)COCCOCCNC(=O)COCCOCCNC(=O)CC[C@H](NC(=O)CCCCCCCCCCCCCCCCC(=O)O)C(=O)O)C(C)C)C(=O)N[C@H](C(=O)N[C@@H](Cc1c[nH]c2ccccc12)C(=O)O)[C@@H](C)CC [BX-256] ({C18 diacid-γGlu-AEEA-AEEA-Ethylenediamine-Suc}-DEEAVYFAHLDIIW-OH) | Developed rapid breathing and limbs turned pale purple, and developed convulsions at 16 minutes after administration; died at 27 minutes after administration; also recorded: Developed rapid breathing, the limbs and face turned purple, and had weak limbs at 15 minutes after administration; died at 21 minutes after administration |  |  |  |  |  |  |
| CC[C@H](C)[C@H](NC(=O)[C@H](CC(=O)O)NC(=O)[C@H](CCCCNC(=O)CC[C@H](NC(=O)COCCOCCNC(=O)COCCOCCNC(=O)CCCCCCCCCCCCCCCCC(=O)O)C(=O)O)NC(=O)[C@H](Cc1c[nH]cn1)NC(=O)[C@H](C)NC(=O)[C@H](Cc1ccccc1)NC(=O)[C@H](Cc1ccc(O)cc1)NC(=O)[C@@H](NC(=O)[C@H](C)NC(=O)[C@H](CCC(=O)O)NC(=O)[C@H](CCC(=O)O)NC(=O)[C@H](CC(=O)O)NC(=O)/C=C/C(=O)O)C(C)C)C(=O)N[C@H](C(=O)N[C@@H](Cc1c[nH]c2ccccc12)C(N)=O)[C@@H](C)CC [BX-86] (Fumaroyl-DEEAVYFAHK([γGlu-AEEA-AEEA-C18 diacid])DIIW-NH2) |  | 18.3% | 10.4% | 63 min | 1146 ng·h/mL |  |  |
| CCCCCCCCCCCCCCCCCC(=O)NCCOCCOCC(=O)NCCOCCOCC(=O)N[C@@H](CCC(=O)NCCCC[C@H](NC(=O)[C@H](Cc1c[nH]cn1)NC(=O)[C@H](C)NC(=O)[C@H](Cc1ccccc1)NC(=O)[C@H](Cc1ccc(O)cc1)NC(=O)[C@@H](NC(=O)[C@H](C)NC(=O)[C@H](CCC(=O)O)NC(=O)[C@H](CCC(=O)O)NC(=O)[C@H](CC(=O)O)NC(=O)/C=C/C(=O)O)C(C)C)C(=O)N[C@@H](CC(=O)O)C(=O)N[C@H](C(=O)N[C@H](C(=O)N[C@@H](Cc1c[nH]c2ccccc12)C(=O)O)[C@@H](C)CC)[C@@H](C)CC)C(=O)O [BX-69] (Fumaroyl-DEEAVYFAHK([γGlu-AEEA-AEEA-Stearoyl])DIIW-OH) |  | 13.1% | 11.5% | 30 min | 1611 ng·h/mL | T1/2=30min; |  |
| CCCCCCCCCCCC(=O)NCCOCCOCC(=O)NCCOCCOCC(=O)N[C@@H](CCC(=O)NCCCC[C@H](NC(=O)[C@H](Cc1c[nH]cn1)NC(=O)[C@H](C)NC(=O)[C@H](Cc1ccccc1)NC(=O)[C@H](Cc1ccc(O)cc1)NC(=O)[C@@H](NC(=O)[C@H](C)NC(=O)[C@H](CCC(=O)O)NC(=O)[C@H](CCC(=O)O)NC(=O)[C@H](CC(=O)O)NC(=O)/C=C/C(=O)O)C(C)C)C(=O)N[C@@H](CC(=O)O)C(=O)N[C@H](C(=O)N[C@H](C(=O)N[C@@H](Cc1c[nH]c2ccccc12)C(=O)O)[C@@H](C)CC)[C@@H](C)CC)C(=O)O [BX-71] (Fumaroyl-DEEAVYFAHK([γGlu-AEEA-AEEA-Lauroyl])DIIW-OH) |  | -9.66% | -9.49% | 23 min | 2049 ng·h/mL | T1/2=23min; |  |
